Assay results taken from paper PMC12698583, “Efficacy of sulfonamides targeting malic enzyme in an animal model of Chagas disease” (Frontiers in Pharmacology, 2025).
pEC50, pIC50: −log10 of the molar value.

Experiments:
[1] = tested on: T. cruzi Dm28c strain intracellular form infecting H9c2 rat cardiomyoblasts; test: T. cruzi intracellular image-based assay; assay type: cell-based, Trypanosoma cruzi; settings: for pEC50: host cells infected by T. cruzi amastigotes, 72 h treatment
Experimental: (§1) Tested compounds were dissolved and serially diluted in dimethylsulfoxide (DMSO) using a half-log dilution across six concentrations. Intermediate plates were prepared by diluting compounds 1:25 in DMEM (Dulbecco’s Modified Eagle Medium) with 10% FBS (Fetal Bovine Serum). The assay was based on [Fredo Naciuk et al. (2020)], with minor modifications. Briefly, T. cruzi trypomastigotes (from LLC-MK2 cultures, 6 days post-infection) were used to infect H9c2 rat cardiomyoblasts overnight (16–18 h) at MOI 1. After washing with PBS, cells were trypsinized and resuspended in DMEM at 2.3 × 10^4 cells/mL. Then, 65 μL per well was plated in 384-well plates and incubated for 24 h (37 °C, 5% CO2, >95% humidity). Subsequently, 7.5 μL of compound solution was added (final [DMSO] 0.4%). After 72 h of treatment, cells were fixed with 4% PFA and stained with Hoechst 33342 (4 μg/mL). Six images per well were acquired using the Operetta system (PerkinElmer) and analyzed with Columbus software to quantify infected cells (≥3 cytoplasmic parasite spots).

[2] = target: T. cruzi malic enzyme (TcME) (Trypanosoma cruzi, UniProt Q4DJ68); test: Malic enzyme (TcME) inhibition assay, diaphorase/resazurin coupled; assay type: biochemical; settings: concentration necessary to inhibit 50% of T. cruzi Malic enzyme enzymatic activity
Chain of T. cruzi malic enzyme (TcME) (Q4DJ68 entry or part of it): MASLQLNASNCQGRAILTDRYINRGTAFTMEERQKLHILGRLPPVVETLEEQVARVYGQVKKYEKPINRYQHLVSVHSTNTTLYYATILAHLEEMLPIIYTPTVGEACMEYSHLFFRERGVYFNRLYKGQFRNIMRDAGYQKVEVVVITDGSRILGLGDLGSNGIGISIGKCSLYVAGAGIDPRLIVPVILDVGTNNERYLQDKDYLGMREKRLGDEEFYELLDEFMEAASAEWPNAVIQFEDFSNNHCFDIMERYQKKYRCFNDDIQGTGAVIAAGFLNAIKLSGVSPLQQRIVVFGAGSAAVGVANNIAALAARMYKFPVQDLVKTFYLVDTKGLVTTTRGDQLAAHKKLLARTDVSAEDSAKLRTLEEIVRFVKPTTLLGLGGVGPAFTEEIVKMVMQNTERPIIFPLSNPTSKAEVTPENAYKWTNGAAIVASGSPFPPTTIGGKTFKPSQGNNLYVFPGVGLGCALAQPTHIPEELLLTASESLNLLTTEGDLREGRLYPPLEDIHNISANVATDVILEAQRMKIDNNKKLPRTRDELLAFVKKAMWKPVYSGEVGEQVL
Experimental: The TcME inhibition assay was performed as previously described, with minor modifications ([Mercaldi et al., 2021]). Briefly, a coupled assay with the enzyme diaphorase and resorufin fluorescence (Ex 545 nm/Em 600 nm) was recorded every 30 s for 6 min in a CLARIOstar plate reader (BMG LabTech). The final concentrations of reagents in the assay were: 0.02 mM NADP+, 0.4 mM L-aspartate, 0.45 nM TcMEc, 1 U/mL diaphorase, and 10 μM resazurin, all in 50 mM Tris-HCl buffer containing 50 mM NaCl and 2 mM MnCl2 at pH 7.5. The reaction was initiated by adding 1.32 mM L-malate.

[3] = Host cell cytotoxicity in the image-based assay (total host cells); settings: rat, H9c2 rat cardiomyoblasts (infected with T. cruzi), 72 h treatment
Experimental: as §1

[4] = Tolerability study, Hippocratic screening; assay type: in vivo, mice; design: Hypnosis / Sedation / Urination / Tachypnea / Muscle tone / Convulsions / Salivation / Tremors / Vocalization / Limb abduction / Ataxia: scale not given here; settings: 150 mg/kg PO
Experimental: A tolerability study of drug candidates was conducted using the Hippocratic screening protocol, focusing on the assessment of effects on the central nervous system (CNS) and autonomic nervous system (ANS). Each group containing 3 animals received a 150 mg/kg dose of the compounds via oral (PO) administration (gavage). During the experiment, various behavioral and physiological parameters were monitored at regular intervals, ranging from 0 to 24 hours after administration of the substance.

Structure (SMILES): COc1ccc(NS(=O)(=O)c2cccc(NC(=O)c3cnccn3)c2)cc1 [AC-R008, N-(3-(N-(4-methoxyphenyl)sulfamoyl)phenyl)pyrazine-2-carboxamide]
- SI ([1]; Selectivity index): 108
- pEC50 ([1]; Trypanosoma cruzi, H9c2, 72 h): 6.04
- pEC50 [1]: > 6.00
- pIC50 [2]: 6.30
- CC50 at 72 h [3]: 99000 nM
- Ataxia ([4]; 0-15 min): 0A
- Convulsions ([4]; 0-15 min): 0A
- Hypnosis ([4]; 0-15 min): 0A
- Limb abduction ([4]; 0-15 min): 0A
- Muscle tone ([4]; 0-15 min): 0A
- Pedaling ([4]; 0-15 min): 0A
- Piloerection ([4]; 0-15 min): 0A
- Ptosis ([4]; 0-15 min): 0A
- Salivation ([4]; 0-15 min): 0A
- Sedation ([4]; 0-15 min): 0A
- Tachypnea ([4]; 0-15 min): 0A
- Tremors ([4]; 0-15 min): 0A
- Urination ([4]; 0-15 min): 0A
- Vocalization ([4]; 0-15 min): 0A
- Ataxia ([4]; 15 min): 0A
- Convulsions ([4]; 15 min): 0A
- Hypnosis ([4]; 15 min): 0A
- Limb abduction ([4]; 15 min): 0A
- Muscle tone ([4]; 15 min): 0A
- Pedaling ([4]; 15 min): 0A
- Piloerection ([4]; 15 min): 0A
- Ptosis ([4]; 15 min): 0A
- Salivation ([4]; 15 min): 0A
- Sedation ([4]; 15 min): 0A
- Tachypnea ([4]; 15 min): 0A
- Tremors ([4]; 15 min): 0A
- Urination ([4]; 15 min): 0A
- Vocalization ([4]; 15 min): 0A
- Ataxia ([4]; 30 min): 0A
- Convulsions ([4]; 30 min): 0A
- Hypnosis ([4]; 30 min): 0A
- Limb abduction ([4]; 30 min): 0A
- Muscle tone ([4]; 30 min): 0A
- Pedaling ([4]; 30 min): 0A
- Piloerection ([4]; 30 min): 0A
- Ptosis ([4]; 30 min): 0A
- Salivation ([4]; 30 min): 0A
- Sedation ([4]; 30 min): 0A
- Tachypnea ([4]; 30 min): 0A
- Tremors ([4]; 30 min): 0A
- Urination ([4]; 30 min): 0A
- Vocalization ([4]; 30 min): 0A
- Ataxia ([4]; 60 min): 0A
- Convulsions ([4]; 60 min): 0A
- Hypnosis ([4]; 60 min): 0A
- Limb abduction ([4]; 60 min): 0A
- Muscle tone ([4]; 60 min): 0A
- Pedaling ([4]; 60 min): 0A
- Piloerection ([4]; 60 min): 0A
- Ptosis ([4]; 60 min): 0A
- Salivation ([4]; 60 min): 0A
- Sedation ([4]; 60 min): 0A
- Tachypnea ([4]; 60 min): 0A
- Tremors ([4]; 60 min): 0A
- Urination ([4]; 60 min): 0A
- Vocalization ([4]; 60 min): 0A
- Ataxia ([4]; 2h): 0A
- Convulsions ([4]; 2h): 0A
- Hypnosis ([4]; 2h): 0A
- Limb abduction ([4]; 2h): 0A
- Muscle tone ([4]; 2h): 0A
- Pedaling ([4]; 2h): 0A
- Piloerection ([4]; 2h): 0A
- Ptosis ([4]; 2h): 0A
- Salivation ([4]; 2h): 0A
- Sedation ([4]; 2h): 0A
- Tachypnea ([4]; 2h): 0A
- Tremors ([4]; 2h): 0A
- Urination ([4]; 2h): 0A
- Vocalization ([4]; 2h): 0A
- Ataxia ([4]; 3h): 0A
- Convulsions ([4]; 3h): 0A
- Hypnosis ([4]; 3h): 0A
- Limb abduction ([4]; 3h): 0A
- Muscle tone ([4]; 3h): 0A
- Pedaling ([4]; 3h): 0A
- Piloerection ([4]; 3h): 0A
- Ptosis ([4]; 3h): 0A
- Salivation ([4]; 3h): 0A
- Sedation ([4]; 3h): 0A
- Tachypnea ([4]; 3h): 0A
- Tremors ([4]; 3h): 0A
- Urination ([4]; 3h): 0A
- Vocalization ([4]; 3h): 0A
- Ataxia ([4]; 4h): 0A
- Convulsions ([4]; 4h): 0A
- Hypnosis ([4]; 4h): 0A
- Limb abduction ([4]; 4h): 0A
- Muscle tone ([4]; 4h): 0A
- Pedaling ([4]; 4h): 0A
- Piloerection ([4]; 4h): 0A
- Ptosis ([4]; 4h): 0A
- Salivation ([4]; 4h): 0A
- Sedation ([4]; 4h): 0A
- Tachypnea ([4]; 4h): 0A
- Tremors ([4]; 4h): 0A
- Urination ([4]; 4h): 0A
- Vocalization ([4]; 4h): 0A
- Ataxia ([4]; 24h): 0A
- Convulsions ([4]; 24h): 0A
- Hypnosis ([4]; 24h): 0A
- Limb abduction ([4]; 24h): 0A
- Muscle tone ([4]; 24h): 0A
- Pedaling ([4]; 24h): 0A
- Piloerection ([4]; 24h): 0A
- Ptosis ([4]; 24h): 0A
- Salivation ([4]; 24h): 0A
- Sedation ([4]; 24h): 0A
- Tachypnea ([4]; 24h): 0A
- Tremors ([4]; 24h): 0A
- Urination ([4]; 24h): 0A
- Vocalization ([4]; 24h): 0A
